Earlier results as cited in patent publication US7179939B2, “Sodium ferric gluconate complexes and method of manufacture thereof” (priority 2004, dated 2007).

sodium ferric gluconate complex in sucrose
reactions associated with administration (severity) (occur at a lower rate compared to iron dextran): mild to moderate | occurrence of allergic episodes (study comparing iron dextran with sodium ferric gluconate): 3.3 allergic episodes per million doses
